Here are results for 5 compounds from patent publication US8772316B2, “Substituted 6,7-dialkoxy-3-isoquinolinol derivatives as inhibitors of phosphodiesterase 10 (PDE10A)” (Allergan, Inc., priority 2011, dated 2014).

Type in all cases: biochemical
The target in one assay is PDE4D3 (Homo sapiens (Human), UniProt Q08499). Description: PDE4D3 inhibition (selectivity testing). The text has this: The compounds have also been tested for their activities on PDEs1-9 and PDE11.
The target of assay [1] is PDE10A. The assay can be described thus: Phosphodiesterase assay (TR-FRET, LANCE cAMP kit). Particulars: PDE10A (BPS Bioscience) 200 pg/well, biotin-cAMP substrate, 60 min at room temperature.
Assay [2] addresses PDE10A (Homo sapiens, UniProt Q9Y233). The assay can be described thus: Phosphodiesterase assay (TR-FRET, LANCE cAMP kit). Conditions: PDE10A (BPS Bioscience) 200 pg/well, biotin-cAMP substrate, 60 min at room temperature.

Molecules are shown by their SMILES. pIC50: −log10 of the molar value. Where a name gives a salt, the structure may show the parent alone.

Sequence of PDE10A (Homo sapiens, UniProt Q9Y233) (Q9Y233 whole entry, looked up): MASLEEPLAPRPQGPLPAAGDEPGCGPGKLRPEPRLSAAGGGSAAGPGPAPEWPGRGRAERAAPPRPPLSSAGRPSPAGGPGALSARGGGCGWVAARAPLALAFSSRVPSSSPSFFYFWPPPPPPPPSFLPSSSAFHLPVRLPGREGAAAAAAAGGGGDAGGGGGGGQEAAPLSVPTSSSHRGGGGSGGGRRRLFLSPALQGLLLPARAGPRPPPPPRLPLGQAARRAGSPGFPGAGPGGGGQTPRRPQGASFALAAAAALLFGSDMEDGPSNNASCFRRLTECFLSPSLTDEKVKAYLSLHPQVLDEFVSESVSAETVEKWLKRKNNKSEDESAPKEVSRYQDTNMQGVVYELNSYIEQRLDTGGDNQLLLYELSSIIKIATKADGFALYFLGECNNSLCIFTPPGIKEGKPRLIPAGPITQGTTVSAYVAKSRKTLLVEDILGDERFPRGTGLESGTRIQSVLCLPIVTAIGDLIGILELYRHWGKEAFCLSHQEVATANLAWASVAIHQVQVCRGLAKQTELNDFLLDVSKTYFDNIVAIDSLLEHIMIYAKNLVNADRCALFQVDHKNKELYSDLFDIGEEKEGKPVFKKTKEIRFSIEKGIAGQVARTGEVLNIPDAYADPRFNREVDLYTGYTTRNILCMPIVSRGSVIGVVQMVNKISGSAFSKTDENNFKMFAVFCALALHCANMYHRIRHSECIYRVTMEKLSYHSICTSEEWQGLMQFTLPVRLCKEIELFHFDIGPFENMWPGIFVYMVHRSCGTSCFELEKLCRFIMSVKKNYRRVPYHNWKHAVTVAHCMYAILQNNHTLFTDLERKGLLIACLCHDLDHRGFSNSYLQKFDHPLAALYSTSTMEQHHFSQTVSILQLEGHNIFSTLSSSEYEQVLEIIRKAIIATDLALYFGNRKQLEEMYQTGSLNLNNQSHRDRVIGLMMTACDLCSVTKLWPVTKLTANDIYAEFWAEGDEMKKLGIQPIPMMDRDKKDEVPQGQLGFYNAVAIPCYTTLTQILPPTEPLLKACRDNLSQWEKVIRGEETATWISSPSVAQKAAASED
Sequence of PDE4D3 (Q08499 other isoform, or with tags, fused parts or gaps): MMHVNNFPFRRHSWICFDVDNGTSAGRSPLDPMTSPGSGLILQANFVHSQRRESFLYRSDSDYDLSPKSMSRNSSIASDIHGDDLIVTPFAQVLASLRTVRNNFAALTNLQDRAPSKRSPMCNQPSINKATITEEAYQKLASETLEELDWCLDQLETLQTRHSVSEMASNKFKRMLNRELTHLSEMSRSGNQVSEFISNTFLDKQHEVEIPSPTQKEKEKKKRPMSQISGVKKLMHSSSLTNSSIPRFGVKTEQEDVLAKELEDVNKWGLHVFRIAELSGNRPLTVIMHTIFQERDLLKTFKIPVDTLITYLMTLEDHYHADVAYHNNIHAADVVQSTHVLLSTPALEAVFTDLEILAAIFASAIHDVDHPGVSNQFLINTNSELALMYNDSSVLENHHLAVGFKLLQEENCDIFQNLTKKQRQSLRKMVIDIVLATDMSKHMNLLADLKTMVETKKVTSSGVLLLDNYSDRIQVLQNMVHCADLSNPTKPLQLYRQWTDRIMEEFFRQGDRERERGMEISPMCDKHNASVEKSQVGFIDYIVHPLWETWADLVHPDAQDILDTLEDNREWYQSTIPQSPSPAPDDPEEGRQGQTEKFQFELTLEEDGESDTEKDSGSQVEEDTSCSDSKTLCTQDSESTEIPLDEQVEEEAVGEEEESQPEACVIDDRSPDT

For `CCc1nc(O)c(Cc2ccc3oc4ccccc4c3c2)c2cc(OC)c(OC)cc12` [Compound 6, 4-(Dibenzo[b,d]furan-2-ylmethyl)-1-ethyl-6,7-dimethoxyisoquinolin-3-ol hydrochloride], the pIC50 at PDE4D3 was 9.05; on PDE10A [1] it was 9.92.
Consider `CCc1nc(O)c(Cc2cnc3cc(OC)ccc3c2)c2cc(OC)c(OC)cc12` [Compound 31, 1-ethyl-6,7-dimethoxy-4-((7-methoxyquinolin-3-yl)methyl)isoquinolin-3-ol dihydrochloride], for which the pIC50 is 7.09 against PDE4D3 and 7.89 on PDE10A [2].
For `COc1ccc2nc(NCC(F)(F)F)c(Cc3c(O)nc(C(C)C)c4cc(OC)c(OC)cc34)cc2c1` [Compound 51, 1-isopropyl-6,7-dimethoxy-4-((6-methoxy-2-(2,2,2-trifluoroethylamino)quinolin-3-yl)methyl)isoquinolin-3-ol dihydrochloride], the pIC50 at PDE4D3 was 6.55; against PDE10A [2] it was 7.26.
As for `CCCc1nc(O)c(Cc2cc3cc(OCC)c(F)cc3nc2NCC)c2cc(OC)c(OC)cc12` [Compound 86, 4-((6-Ethoxy-2-(ethylamino)-7-fluoroquinolin-3-yl)methyl)-6,7-dimethoxy-1-propylisoquinolin-3-ol dihydrochloride], the pIC50 against PDE10A [2] was 9.52.
The same measure, in the same setting: the result for `CCCc1nc(O)c(Cc2cc3cc(OCC)ccc3nc2NCCNC(C)=O)c2cc(OC)c(OC)cc12` [Compound 88, N-(2-((6-ethoxy-3-((3-hydroxy-6,7-dimethoxy-1-propylisoquinolin-4-yl)methyl)quinolin-2-yl)amino)ethyl)acetamide dihydrochloride] reads 8.74.
